Where “and” joins values, the source holds several entries; their conditions need not be identical. Equal values may be shown once.
Legend:
human recombinant COX-2 = biological target: T1, human recombinant COX-2 (Homo sapiens, UniProt P35354); test: biochemical; format: biochemical; conditions: for Selectivity index SI = IC50 COX-1/IC50 COX-2: ratio of ovine COX-1 to human recombinant COX-2 IC50
T1 construct: purchased Cayman Chemical 560131
T1 sequence (P35354 18-604): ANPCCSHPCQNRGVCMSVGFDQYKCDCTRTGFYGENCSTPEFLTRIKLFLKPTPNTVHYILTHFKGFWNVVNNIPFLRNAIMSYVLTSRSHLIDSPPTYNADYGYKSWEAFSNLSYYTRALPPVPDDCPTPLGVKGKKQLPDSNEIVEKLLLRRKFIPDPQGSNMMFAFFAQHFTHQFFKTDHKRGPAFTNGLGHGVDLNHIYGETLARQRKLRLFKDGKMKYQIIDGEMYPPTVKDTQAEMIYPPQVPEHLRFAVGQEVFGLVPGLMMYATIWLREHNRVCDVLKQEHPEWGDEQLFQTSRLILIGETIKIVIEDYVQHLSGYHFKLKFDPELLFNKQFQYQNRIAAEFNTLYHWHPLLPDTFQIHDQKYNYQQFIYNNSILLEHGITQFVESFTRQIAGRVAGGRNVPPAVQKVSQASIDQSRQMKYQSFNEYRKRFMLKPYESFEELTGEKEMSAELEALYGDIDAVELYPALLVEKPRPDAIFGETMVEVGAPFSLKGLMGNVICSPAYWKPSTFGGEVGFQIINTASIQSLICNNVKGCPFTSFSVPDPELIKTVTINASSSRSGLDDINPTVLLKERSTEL
Description: (§1) The COX-1/2 inhibitory activities of the tested compounds were evaluated using the enzyme immunoassay (EIA) method against ovine COX-1 and human recombinant COX-2. The selectivity index was calculated as the ratio IC50 COX-1/IC50 COX-2.
(§2) The kit utilizes an enzyme immunoassay (EIA) in order to quantify the prostanoid product resulted from COX catalyzed reaction. The inhibitory potential of our molecules was tested against the ovine COX-1 and human recombinant COX-2 enzymes. The COX inhibition reaction was performed by a 10 min incubation at 37 °C in the presence of reaction buffer, heme, COX-1 or COX-2 enzymes, and the tested inhibitor. The reaction was initiated by adding arachidonic acid and incubating at 37 °C for 2 min. Enzymatic catalysis was stopped by adding HCl. Stannous chloride was subsequently added to perform the reduction of COX-derived prostaglandin H2 (PGH2) produced in the reaction of COX leading to prostaglandin F2α (PGF2α). PGF2α was then quantified using the EIA kit. Prostanoid containing solutions obtained from the COX reaction were then diluted and transferred to plates that were pre-coated with monoclonal anti-rabbit IgG antibodies produced in mouse. They were incubated overnight in the presence of PG-acetylcholinesterase (AchE) conjugate and specific PG antiserum. The reaction mixture was then removed from the wells, the plates were washed to remove all unbound reagents and Ellman’s reagent (which contains the AchE substrate) was then added for plate development. […] The intensity of the color is inversely proportional to the amount of PG found in the sample. The PG quantity was determined using a PG standard curve generated on the same plate. All determinations were performed according to the manufacturer’s instructions and similar with other literature reports. The IC50 values were calculated using a sigmoidal concentration-inhibition response curve (duplicate determinations). Every compound was assayed in the COX reaction on a range of concentrations from 0.03 μM to 300 µM in two distinct determinations. Each COX reaction sample was then EIA assayed at two dilutions and each dilution was tested in duplicate. […] Using IC50 values, the selectivity index (SI) was calculated as the ratio IC50COX-1/IC50COX-2.

ovine COX-1 = biological target: T2, ovine COX-1 (Ovis aries, UniProt P05979); test: biochemical; format: biochemical; conditions: EIA, sigmoidal concentration-inhibition curves, concentrations 0.03 μM to 300 µM
T2 construct: purchased Cayman Chemical 560131
T2 sequence (P05979 25-600): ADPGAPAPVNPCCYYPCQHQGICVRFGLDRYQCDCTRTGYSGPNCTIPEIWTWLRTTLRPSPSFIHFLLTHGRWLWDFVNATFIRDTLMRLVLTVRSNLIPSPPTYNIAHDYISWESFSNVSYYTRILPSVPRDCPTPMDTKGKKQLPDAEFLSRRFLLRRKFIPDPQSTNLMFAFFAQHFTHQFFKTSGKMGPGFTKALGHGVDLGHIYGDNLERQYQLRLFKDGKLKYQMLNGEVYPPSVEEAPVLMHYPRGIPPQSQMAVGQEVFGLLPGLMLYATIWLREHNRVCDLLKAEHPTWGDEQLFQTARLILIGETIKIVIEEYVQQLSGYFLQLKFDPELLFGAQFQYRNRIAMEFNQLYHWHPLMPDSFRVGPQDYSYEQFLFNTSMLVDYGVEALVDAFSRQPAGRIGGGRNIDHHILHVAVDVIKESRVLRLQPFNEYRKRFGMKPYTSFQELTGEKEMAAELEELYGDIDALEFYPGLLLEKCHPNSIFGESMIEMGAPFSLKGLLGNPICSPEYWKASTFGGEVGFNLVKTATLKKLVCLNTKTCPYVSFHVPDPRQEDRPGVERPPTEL
Description: as §1, §2

[1] = set-up: method as in earlier work; conditions: induced acute inflammation experimental model; cited from earlier work
[2] = human recombinant COX-2, EIA, sigmoidal concentration-inhibition curves, concentrations 0.03 μM to 300 µM

| Structure (SMILES) | IC50 (human recombinant COX-2; [2]) | IC50 COX-2 (human recombinant COX-2; [2]) | IC50 (ovine COX-1) | in vivo anti-inflammatory effect [1] | Selectivity index SI = IC50 COX-1/IC50 COX-2 (human recombinant COX-2) | IC50 COX-1 (ovine COX-1) |
| --- | --- | --- | --- | --- | --- | --- |
| COc1cc(-c2nc(-c3ccccc3)c(C)s2)cc(OC)c1OC [A1] | > 300 µM | practically inactive | 140 µM | – | – | – |
| COc1cc(-c2nc(-c3ccccc3)cs2)cc(OC)c1OC [A2] | 23.3 µM | – | 34.5 µM | lacked the in vivo effect | 1.48 | potent |
| COc1cc(-c2nc(-c3ccc([N+](=O)[O-])cc3)cs2)cc(OC)c1OC [A3] | 25.5 µM | – | 236 µM | efficient | 9.242 and 9.24 | – |
| COc1ccc(-c2csc(-c3cc(OC)c(OC)c(OC)c3)n2)cc1 [A4] | 75 µM | – | 50.4 µM | – | 0.67 | potent |
| COc1cc(-c2nc(-c3ccc(C#N)cc3)cs2)cc(OC)c1OC [A5] | 148 µM | – | 73.3 µM | – | 0.49 | – |
| COc1cc(-c2nc(-c3cccc4ccccc34)cs2)cc(OC)c1OC [A6] | 28.9 µM | – | 26.9 µM | – | 0.93 | – |
| COc1cc(-c2nc(-c3ccc(C(N)=O)c(O)c3)cs2)cc(OC)c1OC [A7] | 106 µM | – | 54.7 µM | – | 0.51 | potent |
| COc1cc(-c2nc(-c3ccc(Cl)cc3)cs2)cc(OC)c1OC [A8] | 25.6 µM | – | 31.5 µM | efficient | 1.22 | potent |
| COc1cc(-c2nc(-c3sc(-c4ccccc4)nc3C)cs2)cc(OC)c1OC [A9] | 70.9 µM | – | 83.2 µM | – | 1.17 | – |
| COc1cc(-c2nc(CCl)cs2)cc(OC)c1OC [A10] | 107 µM | – | – | – | 5.69 | – |
| COc1cc(-c2nc(C)c(C(C)=O)s2)cc(OC)c1OC [A11] | 216 µM | – | 76 µM | – | 0.35 | – |
| CCOC(=O)c1sc(-c2cc(OC)c(OC)c(OC)c2)nc1C [A12] | 273 µM | – | – | – | 1.5 | – |
| CCOC(=O)Cc1csc(-c2cc(OC)c(OC)c(OC)c2)n1 [A13] | 229 µM | – | 109 µM | – | 0.47 | – |
